# Reference: PMC10882719 (Frontiers in Neuroscience, 2024)
# Like-named read-outs stand apart in the source and are kept apart here.
# Assays:
# Format in all cases: cell-based
# [1] = target: T1, 168 GPCRs (Homo sapiens, UniProt P28566); settings: HTR1E
# T1 construct: host or cells: PathHunter cell lines
# [2] = target: T2, 168 GPCRs (Homo sapiens, UniProt P35408); settings: PTGER4
# T2 construct: host or cells: PathHunter cell lines
# [3] = target: T3, 168 GPCRs (Homo sapiens, UniProt P33032); settings: MC5R
# T3 construct: host or cells: PathHunter cell lines
# T3 sequence (P33032 whole entry): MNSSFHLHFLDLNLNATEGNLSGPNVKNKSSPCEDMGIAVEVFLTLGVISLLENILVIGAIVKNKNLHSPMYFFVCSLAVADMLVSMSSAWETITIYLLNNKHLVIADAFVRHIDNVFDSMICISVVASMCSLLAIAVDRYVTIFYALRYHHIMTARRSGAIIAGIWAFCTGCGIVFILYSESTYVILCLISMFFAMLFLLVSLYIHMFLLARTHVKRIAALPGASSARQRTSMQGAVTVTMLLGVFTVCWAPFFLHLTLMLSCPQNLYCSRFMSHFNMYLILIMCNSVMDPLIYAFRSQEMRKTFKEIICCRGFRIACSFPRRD
# [4] = target: T4, 168 GPCRs (Homo sapiens, UniProt P30550); settings: GRPR
# T4 construct: host or cells: PathHunter cell lines
# T4 sequence (P30550 whole entry): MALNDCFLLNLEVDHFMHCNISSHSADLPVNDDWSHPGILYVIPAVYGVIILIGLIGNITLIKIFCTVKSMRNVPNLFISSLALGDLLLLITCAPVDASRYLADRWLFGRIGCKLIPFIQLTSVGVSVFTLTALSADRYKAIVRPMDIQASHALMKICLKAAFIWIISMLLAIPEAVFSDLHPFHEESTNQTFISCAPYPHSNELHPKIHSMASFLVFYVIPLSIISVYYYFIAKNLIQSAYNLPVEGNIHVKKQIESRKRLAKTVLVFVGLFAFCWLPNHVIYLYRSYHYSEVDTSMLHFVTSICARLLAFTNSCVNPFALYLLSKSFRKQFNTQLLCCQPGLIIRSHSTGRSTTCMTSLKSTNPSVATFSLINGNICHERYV
# [5] = target: T5, 168 GPCRs (Homo sapiens, UniProt P41146); settings: OPRL1
# T5 construct: host or cells: PathHunter cell lines
# T5 sequence (P41146 whole entry): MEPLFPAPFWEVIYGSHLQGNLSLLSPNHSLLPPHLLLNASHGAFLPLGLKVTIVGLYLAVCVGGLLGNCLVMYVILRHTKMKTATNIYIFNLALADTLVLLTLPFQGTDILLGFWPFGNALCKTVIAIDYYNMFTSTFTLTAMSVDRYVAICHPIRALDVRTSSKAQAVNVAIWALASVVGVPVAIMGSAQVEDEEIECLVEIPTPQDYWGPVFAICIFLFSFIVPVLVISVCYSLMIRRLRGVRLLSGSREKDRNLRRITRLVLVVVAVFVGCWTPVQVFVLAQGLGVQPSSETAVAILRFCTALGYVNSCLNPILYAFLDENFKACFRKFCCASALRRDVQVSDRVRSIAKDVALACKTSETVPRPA
# [6] = target: T6, 168 GPCRs (Homo sapiens, UniProt Q9Y5Y4)
# T6 construct: host or cells: PathHunter cell lines
# T6 sequence (Q9Y5Y4 1-395): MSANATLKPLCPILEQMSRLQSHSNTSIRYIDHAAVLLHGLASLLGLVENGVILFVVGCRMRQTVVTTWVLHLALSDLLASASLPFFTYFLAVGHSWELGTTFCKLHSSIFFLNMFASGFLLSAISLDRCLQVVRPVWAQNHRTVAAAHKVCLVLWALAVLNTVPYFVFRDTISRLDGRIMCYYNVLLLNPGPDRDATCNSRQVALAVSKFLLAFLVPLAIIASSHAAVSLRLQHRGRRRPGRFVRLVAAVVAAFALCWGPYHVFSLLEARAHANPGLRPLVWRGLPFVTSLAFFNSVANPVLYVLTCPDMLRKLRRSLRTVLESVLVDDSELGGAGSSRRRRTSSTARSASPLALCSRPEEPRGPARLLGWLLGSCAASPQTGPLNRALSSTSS
# [7] = target: T7, 168 GPCRs (Homo sapiens, UniProt P48145)
# T7 construct: host or cells: PathHunter cell lines
# T7 sequence (P48145 1-328): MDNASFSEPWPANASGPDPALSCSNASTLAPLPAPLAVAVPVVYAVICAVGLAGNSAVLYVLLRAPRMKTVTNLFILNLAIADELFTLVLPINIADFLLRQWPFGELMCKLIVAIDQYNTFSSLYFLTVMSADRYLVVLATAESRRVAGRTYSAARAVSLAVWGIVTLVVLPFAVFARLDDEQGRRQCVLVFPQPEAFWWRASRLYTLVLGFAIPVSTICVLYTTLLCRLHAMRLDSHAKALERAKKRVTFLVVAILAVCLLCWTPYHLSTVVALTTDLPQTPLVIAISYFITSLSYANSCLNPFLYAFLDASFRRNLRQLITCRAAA
# [8] = target: T8, 168 GPCRs (Homo sapiens, UniProt P51685)
# T8 construct: host or cells: PathHunter cell lines
# T8 sequence (P51685 whole entry): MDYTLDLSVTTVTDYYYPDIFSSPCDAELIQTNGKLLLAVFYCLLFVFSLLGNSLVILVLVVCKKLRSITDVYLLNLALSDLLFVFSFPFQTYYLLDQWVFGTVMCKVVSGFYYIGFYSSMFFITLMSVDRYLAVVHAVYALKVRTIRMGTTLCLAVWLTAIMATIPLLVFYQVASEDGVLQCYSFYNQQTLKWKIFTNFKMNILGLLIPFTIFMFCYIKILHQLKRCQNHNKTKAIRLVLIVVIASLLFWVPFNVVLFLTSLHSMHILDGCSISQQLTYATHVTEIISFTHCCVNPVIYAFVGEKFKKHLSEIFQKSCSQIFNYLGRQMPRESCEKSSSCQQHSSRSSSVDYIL
# [9] = target: T9, 168 GPCRs (Homo sapiens, UniProt P08173)
# T9 construct: host or cells: PathHunter cell lines
# T9 sequence (P08173 1-479): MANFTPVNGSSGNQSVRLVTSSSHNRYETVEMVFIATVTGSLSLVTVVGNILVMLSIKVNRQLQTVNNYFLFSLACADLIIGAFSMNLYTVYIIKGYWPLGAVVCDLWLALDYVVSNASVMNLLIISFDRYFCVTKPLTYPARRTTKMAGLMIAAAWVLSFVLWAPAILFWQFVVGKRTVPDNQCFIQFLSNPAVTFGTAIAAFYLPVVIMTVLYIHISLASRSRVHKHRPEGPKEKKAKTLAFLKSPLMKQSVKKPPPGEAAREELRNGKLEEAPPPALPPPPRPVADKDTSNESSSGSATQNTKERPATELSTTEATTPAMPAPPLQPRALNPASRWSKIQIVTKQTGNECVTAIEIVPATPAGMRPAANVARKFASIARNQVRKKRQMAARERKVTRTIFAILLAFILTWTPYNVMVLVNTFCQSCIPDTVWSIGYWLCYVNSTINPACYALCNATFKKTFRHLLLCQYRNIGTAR
# [10] = target: T10, 168 GPCRs (Homo sapiens, UniProt P14416); settings: DRD2L
# T10 construct: host or cells: PathHunter cell lines
# T10 sequence (P14416 whole entry): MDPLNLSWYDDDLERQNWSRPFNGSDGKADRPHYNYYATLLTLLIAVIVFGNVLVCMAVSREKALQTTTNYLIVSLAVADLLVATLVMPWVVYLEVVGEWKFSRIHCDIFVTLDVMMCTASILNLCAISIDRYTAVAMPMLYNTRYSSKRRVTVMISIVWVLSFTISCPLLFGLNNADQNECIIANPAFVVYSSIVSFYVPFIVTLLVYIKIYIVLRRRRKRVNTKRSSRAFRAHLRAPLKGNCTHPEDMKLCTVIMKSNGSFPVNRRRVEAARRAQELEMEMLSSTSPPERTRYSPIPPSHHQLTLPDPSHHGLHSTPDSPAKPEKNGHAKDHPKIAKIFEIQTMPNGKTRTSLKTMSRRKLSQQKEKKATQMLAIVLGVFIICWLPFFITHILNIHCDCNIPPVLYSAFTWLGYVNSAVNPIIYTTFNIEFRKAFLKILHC
# [11] = target: T11, 168 GPCRs (Homo sapiens, UniProt O00574)
# T11 construct: host or cells: PathHunter cell lines
# T11 sequence (O00574 whole entry): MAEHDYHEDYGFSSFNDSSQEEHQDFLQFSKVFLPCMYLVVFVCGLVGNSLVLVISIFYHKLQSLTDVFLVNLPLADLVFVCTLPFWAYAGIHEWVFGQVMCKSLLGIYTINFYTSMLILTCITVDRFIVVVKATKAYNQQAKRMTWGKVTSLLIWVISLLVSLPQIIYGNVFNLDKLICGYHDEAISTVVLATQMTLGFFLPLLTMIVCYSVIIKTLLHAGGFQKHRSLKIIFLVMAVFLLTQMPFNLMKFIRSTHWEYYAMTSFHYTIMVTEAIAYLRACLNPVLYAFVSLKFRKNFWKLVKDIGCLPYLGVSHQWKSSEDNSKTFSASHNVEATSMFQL
# T1 sequence (P28566 whole entry): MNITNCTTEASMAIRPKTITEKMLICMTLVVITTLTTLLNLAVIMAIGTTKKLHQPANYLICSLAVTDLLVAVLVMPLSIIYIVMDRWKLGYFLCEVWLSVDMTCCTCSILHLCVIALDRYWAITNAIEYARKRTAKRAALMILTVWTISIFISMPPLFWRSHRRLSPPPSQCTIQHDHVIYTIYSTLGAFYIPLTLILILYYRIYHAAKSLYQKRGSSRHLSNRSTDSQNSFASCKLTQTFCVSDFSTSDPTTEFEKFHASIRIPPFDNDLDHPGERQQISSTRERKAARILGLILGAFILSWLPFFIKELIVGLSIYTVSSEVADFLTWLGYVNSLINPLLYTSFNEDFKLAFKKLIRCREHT
# T2 sequence (P35408 whole entry): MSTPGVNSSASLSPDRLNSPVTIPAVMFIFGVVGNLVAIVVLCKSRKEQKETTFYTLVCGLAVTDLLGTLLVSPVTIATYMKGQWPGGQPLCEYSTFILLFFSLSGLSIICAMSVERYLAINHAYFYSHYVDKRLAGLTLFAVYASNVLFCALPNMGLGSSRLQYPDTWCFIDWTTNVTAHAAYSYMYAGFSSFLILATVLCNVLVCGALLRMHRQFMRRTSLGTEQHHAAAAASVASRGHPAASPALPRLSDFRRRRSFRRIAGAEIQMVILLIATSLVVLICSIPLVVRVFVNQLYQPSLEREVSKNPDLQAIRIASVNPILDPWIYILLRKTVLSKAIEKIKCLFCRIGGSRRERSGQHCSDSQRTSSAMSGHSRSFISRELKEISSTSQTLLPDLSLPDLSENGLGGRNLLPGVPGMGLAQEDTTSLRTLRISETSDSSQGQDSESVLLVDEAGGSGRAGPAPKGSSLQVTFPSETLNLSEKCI
smiles,measurement,setting,value
"CNC(C)Cc1ccc2c(c1)OCO2 (stereo not shown) [MDMA, 3,4-Methylenedioxy methamphetamine, reference compound]",% Agonist Activity,[1]; 1 uM,1.9%
same,% Antagonist Activity,[1]; 1 uM,18%
same,% Agonist Activity,[1]; 10 uM,1.1%
same,% Antagonist Activity,[1]; 10 uM,12.7%
same,% Agonist Activity,[2]; Conc 1 uM,11.1%
same,% Antagonist Activity,[2]; Conc 1 uM,7.2%
same,% Agonist Activity,[2]; Conc 10 uM,7.8%
same,% Antagonist Activity,[2]; Conc 10 uM,11.7%
same,% Agonist Activity,[3]; 1 uM,2.5%
same,% Antagonist Activity,[3]; 1 uM,-0.9%
same,% Agonist Activity,[3]; 10 uM,1%
same,% Antagonist Activity,[3]; 10 uM,7.1%
same,% Agonist Activity,[4]; 1 uM,-0.3%
same,% Antagonist Activity,[4]; 1 uM,1.9%
same,% Agonist Activity,[4]; 10 uM,-0.6%
same,% Antagonist Activity,[4]; 10 uM,1.8%
same,% Agonist Activity,[5]; Conc 1 uM,0.5%
same,% Antagonist Activity,[5]; Conc 1 uM,-6.7%
same,% Agonist Activity,[5]; Conc 10 uM,-0.4%
same,% Antagonist Activity,[5]; Conc 10 uM,-3.2%
same,% Agonist Activity,"[6]; CRTH2, 1 uM",-4.1%
same,% Antagonist Activity,"[6]; CRTH2, 1 uM",19.8%
same,% Agonist Activity,"[6]; CRTH2, 10 uM",-3%
same,% Antagonist Activity,"[6]; CRTH2, 10 uM",17.2%
same,% Agonist Activity,"[7]; NPBWR1, 1 uM",-10.2%
same,% Antagonist Activity,"[7]; NPBWR1, 1 uM",-7.5%
same,% Agonist Activity,"[7]; NPBWR1, 10 uM",-13.4%
same,% Antagonist Activity,"[7]; NPBWR1, 10 uM",-8.5%
same,% Agonist Activity,"[8]; CCR8, 1 uM",-0.2%
same,% Antagonist Activity,"[8]; CCR8, 1 uM",-3.1%
same,% Agonist Activity,"[8]; CCR8, 10 uM",-0.2%
same,% Antagonist Activity,"[8]; CCR8, 10 uM",4.3%
same,% Agonist Activity,"[9]; CHRM4, 1 uM",-1.8%
same,% Antagonist Activity,"[9]; CHRM4, 1 uM",32.8%
same,% Agonist Activity,"[9]; CHRM4, 10 uM",-3.2%
same,% Antagonist Activity,"[9]; CHRM4, 10 uM",26.3%
same,% Agonist Activity,[10]; 1 uM,3.3%
same,% Antagonist Activity,[10]; 1 uM,4.8%
same,% Agonist Activity,[10]; 10 uM,2.6%
same,% Antagonist Activity,[10]; 10 uM,11.7%
same,% Agonist Activity,"[11]; CXCR6, 1 uM",14.7%
same,% Antagonist Activity,"[11]; CXCR6, 1 uM",20.9%
same,% Agonist Activity,"[11]; CXCR6, 10 uM",3.8%
same,% Antagonist Activity,"[11]; CXCR6, 10 uM",5.2%
CNC(C)C(=O)c1ccc2c(c1)OCO2 (stereo not shown) [methylone],% Agonist Activity,[1]; 1 uM,-3.5%
same,% Antagonist Activity,[1]; 1 uM,7.6%
same,% Agonist Activity,[1]; 10 uM,0.2%
same,% Antagonist Activity,[1]; 10 uM,13.2%
same,% Agonist Activity,[2]; Conc 1 uM,-2.8%
same,% Antagonist Activity,[2]; Conc 1 uM,10.1%
same,% Agonist Activity,[2]; Conc 10 uM,-1.4%
same,% Antagonist Activity,[2]; Conc 10 uM,4.3%
same,% Agonist Activity,[3]; 1 uM,-7.9%
same,% Antagonist Activity,[3]; 1 uM,1.7%
same,% Agonist Activity,[3]; 10 uM,-8.9%
same,% Antagonist Activity,[3]; 10 uM,-6.3%
same,% Agonist Activity,[4]; 1 uM,0%
same,% Antagonist Activity,[4]; 1 uM,0.7%
same,% Agonist Activity,[4]; 10 uM,-0.1%
same,% Antagonist Activity,[4]; 10 uM,-1.4%
same,% Agonist Activity,[5]; Conc 1 uM,-1.6%
same,% Antagonist Activity,[5]; Conc 1 uM,17.1%
same,% Agonist Activity,[5]; Conc 10 uM,-2.3%
same,% Antagonist Activity,[5]; Conc 10 uM,13.2%
same,% Agonist Activity,"[6]; CRTH2, 1 uM",-5.7%
same,% Antagonist Activity,"[6]; CRTH2, 1 uM",9%
same,% Agonist Activity,"[6]; CRTH2, 10 uM",-5%
same,% Antagonist Activity,"[6]; CRTH2, 10 uM",8.9%
same,% Agonist Activity,"[7]; NPBWR1, 1 uM",1.6%
same,% Antagonist Activity,"[7]; NPBWR1, 1 uM",17.1%
same,% Agonist Activity,"[7]; NPBWR1, 10 uM",-1.9%
same,% Antagonist Activity,"[7]; NPBWR1, 10 uM",25.1%
same,% Agonist Activity,"[8]; CCR8, 1 uM",-0.2%
same,% Antagonist Activity,"[8]; CCR8, 1 uM",4.7%
same,% Agonist Activity,"[8]; CCR8, 10 uM",-0.6%
same,% Antagonist Activity,"[8]; CCR8, 10 uM",-0.3%
same,% Agonist Activity,"[9]; CHRM4, 1 uM",-5.8%
same,% Antagonist Activity,"[9]; CHRM4, 1 uM",10.2%
same,% Agonist Activity,"[9]; CHRM4, 10 uM",-6.2%
same,% Antagonist Activity,"[9]; CHRM4, 10 uM",6.7%
same,% Agonist Activity,[10]; 1 uM,0.1%
same,% Antagonist Activity,[10]; 1 uM,1.1%
same,% Agonist Activity,[10]; 10 uM,-0.7%
same,% Antagonist Activity,[10]; 10 uM,0.1%
same,% Agonist Activity,"[11]; CXCR6, 1 uM",0.3%
same,% Antagonist Activity,"[11]; CXCR6, 1 uM",27.2%
same,% Agonist Activity,"[11]; CXCR6, 10 uM",0.3%
same,% Antagonist Activity,"[11]; CXCR6, 10 uM",12.6%
